Laboratory results reported in patent US20200002283A1, “PYRAZOLE DERIVATIVES HAVING ACTIVITY AGAINST PAIN” (priority 2016, published 2020).
Where two headings read alike, the source gives them in different places.

Tests used:
[1] = molecular target: Human α2δ-1 subunit of Cav2.2 calcium channel (Homo sapiens, UniProt P54289); assay: Human α2δ-1 subunit of Cav2.2 calcium channel assay ([3H]-Gabapentin binding)
Experimental: Human α2δ-1 Subunit of Cav2.2 Calcium Channel Assay
Human α2δ-1 enriched membranes (2.5 μg) were incubated with 15 nM of radiolabeled [3H]-Gabapentin in assay buffer containing Hepes-KOH 10 mM, pH 7.4. NSB (non specific binding) was measured by adding 10 μM pregabalin. After 60 min incubation at 27° C., binding reaction was terminated by filtering through Multiscreen GF/C (Millipore) presoaked in 0.5% polyethyleneimine in Vacuum Manifold Station, followed by 3 washes with ice-cold filtration buffer containing 50 mM Tris-HCl, pH 7.4. Filter plates were dried at 60° C. for 1 hour and 30 μl of scintillation cocktail were added to each well before radioactivity reading. Readings were performed in a Trilux 1450 Microbeta radioactive counter (Perkin Elmer).

human μ-opioid receptor = molecular target: T1, human μ-opioid receptor (Homo sapiens, UniProt P35372); assay: Human μ-opioid receptor radioligand assay ([3H]-DAMGO); type: binding
T1 construct: expressed in transfected cells; host or cells: CHO-K1
Experimental: Human μ-Opioid Receptor Radioligand Assay
To investigate binding properties of test compounds to human μ-opioid receptor, transfected CHO-K1 cell membranes and [^3H]-DAMGO (Perkin Elmer, ES-542-C), as the radioligand, were used. The assay was carried out with 20 μg of membrane suspension, 1 nM of [^3H]-DAMGO in either absence or presence of either buffer or 10 μM Naloxone for total and non-specific binding, respectively. Binding buffer contained Tris-HCl 50 mM, MgCl2 5 mM at pH 7.4. Plates were incubated at 27° C. for 60 minutes. After the incubation period, the reaction mix was then transferred to MultiScreen HTS, FC plates (Millipore), filtered and plates were washed 3 times with ice-cold 10 mM Tris-HCL (pH 7.4). Filters were dried and counted at approximately 40% efficiency in a MicroBeta scintillation counter (Perkin-Elmer) using EcoScint liquid scintillation cocktail.

[2] = human α2δ-1 enriched membranes, 15 nM [3H]-Gabapentin, read-out: α2δ-1 binding
[3] = transfected CHO-K1 cell membranes, 1 nM [3H]-DAMGO, read-out: μ binding

T1 sequence (P35372 whole entry): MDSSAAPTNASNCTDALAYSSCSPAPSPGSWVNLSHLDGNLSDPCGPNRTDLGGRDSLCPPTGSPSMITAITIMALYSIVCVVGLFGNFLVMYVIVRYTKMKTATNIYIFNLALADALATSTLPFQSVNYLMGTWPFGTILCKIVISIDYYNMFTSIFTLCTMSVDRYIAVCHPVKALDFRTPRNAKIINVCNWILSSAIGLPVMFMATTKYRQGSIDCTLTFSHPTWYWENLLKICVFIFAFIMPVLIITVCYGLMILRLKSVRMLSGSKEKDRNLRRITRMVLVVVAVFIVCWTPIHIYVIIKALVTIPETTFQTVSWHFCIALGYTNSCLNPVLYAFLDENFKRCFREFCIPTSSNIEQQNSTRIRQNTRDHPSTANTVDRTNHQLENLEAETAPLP
Sequence of Human α2δ-1 subunit of Cav2.2 calcium channel (P54289 25-1103): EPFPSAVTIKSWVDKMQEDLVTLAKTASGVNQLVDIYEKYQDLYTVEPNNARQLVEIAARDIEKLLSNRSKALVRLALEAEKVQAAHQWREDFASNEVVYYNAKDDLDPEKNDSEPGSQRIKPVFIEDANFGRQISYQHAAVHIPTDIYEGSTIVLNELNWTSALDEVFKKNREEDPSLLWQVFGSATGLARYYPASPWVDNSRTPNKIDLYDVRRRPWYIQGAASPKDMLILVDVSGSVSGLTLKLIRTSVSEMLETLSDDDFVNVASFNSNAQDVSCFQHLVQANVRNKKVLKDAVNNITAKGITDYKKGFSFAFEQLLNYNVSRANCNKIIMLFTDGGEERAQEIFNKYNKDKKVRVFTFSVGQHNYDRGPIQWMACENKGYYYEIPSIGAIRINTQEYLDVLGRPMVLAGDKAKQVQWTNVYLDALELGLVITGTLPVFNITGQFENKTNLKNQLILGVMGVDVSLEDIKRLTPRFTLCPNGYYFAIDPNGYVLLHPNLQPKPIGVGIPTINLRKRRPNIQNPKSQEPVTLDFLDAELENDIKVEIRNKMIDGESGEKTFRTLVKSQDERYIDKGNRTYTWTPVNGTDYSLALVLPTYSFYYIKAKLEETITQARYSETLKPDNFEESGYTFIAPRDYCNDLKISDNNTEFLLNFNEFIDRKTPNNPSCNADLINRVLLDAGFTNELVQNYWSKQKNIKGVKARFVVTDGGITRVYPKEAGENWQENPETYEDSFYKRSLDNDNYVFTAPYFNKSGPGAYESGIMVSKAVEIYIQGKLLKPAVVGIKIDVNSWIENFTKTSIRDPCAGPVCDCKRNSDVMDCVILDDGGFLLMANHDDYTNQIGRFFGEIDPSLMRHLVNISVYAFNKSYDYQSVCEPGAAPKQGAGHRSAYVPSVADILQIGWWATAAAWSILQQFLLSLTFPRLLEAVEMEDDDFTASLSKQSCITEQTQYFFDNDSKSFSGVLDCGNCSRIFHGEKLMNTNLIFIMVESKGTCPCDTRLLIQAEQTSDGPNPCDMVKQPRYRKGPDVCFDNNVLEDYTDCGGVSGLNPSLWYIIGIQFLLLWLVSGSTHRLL

SMILES | Ki [1, 2] [nM] | Ki (human μ-opioid receptor; [3]) [nM] | Ki [1] [nM] | Ki (human μ-opioid receptor) [nM]
COc1ccc(-n2nc(CN)cc2Cc2ccc(O)cc2)cc1 [Example 6, 4-{[3-(Aminomethyl)-1-(4-methoxyphenyl)-1H-pyrazol-5-yl]methyl}phenol] | 3000 to 5000 | > 500 | – | –
NC(=O)CC(N)c1cc(Cc2ccc(O)cc2)n(-c2ccc(Cl)cc2Cl)n1 (centres unmarked) [Example 77, 3-Amino-3-[1-(2,4-dichlorophenyl)-5-(4-hydroxybenzyl)-1H-pyrazol-3-yl]propanamide] | – | – | > 5000 | < 100
COc1ccc(-n2nc(CN)cc2Cc2ccc(O)cc2)c(Cl)c1 [Example 37, 4-{[3-(Aminomethyl)-1-(2-chloro-4-methoxyphenyl)-1H-pyrazol-5-yl]methyl}phenol] | – | – | 500 to 3000 | < 100
COc1ccc(Cc2cc(CN)nn2-c2ccc(F)cc2Cl)cc1 [Example 5, [1-(2-Chloro-4-fluorophenyl)-5-(4-methoxybenzyl)-1H-pyrazol-3-yl]methanamine] | 500 to 3000 | > 500 | – | –
